From patent US8933195B2, “Histone deacetylase inhibitors and synthetic method thereof and use thereof in manufacture of medicaments” (Nanjing Yoko Biomedical R & D Ltd., priority 2011, dated 2015)
Like-named read-outs stand apart in the source and are kept apart here.

Columns and labels:
[1] = target: HDAC1 (Homo sapiens, UniProt Q13547); assay: Measurement of biochemical activities of HDAC (fluorescently-labeled acetylated lysine substrate)
Experimental: (§1) 1. Measurement principles: the measurement of biochemical activities of compounds is determined according to the degree of the compounds inhibiting the deacylation of HDAC enzyme. After the fluorescently-labeled substrate containing acetylated lysine side chain reacts with the HDAC enzyme, the fluorogenic substrate is deacetylated. After the deacetylated fluorescently-labeled substrate is cracked by the enzyme, a fluorescent substance is released. The fluorescent substance generates emitting light of 460 nm under the excitation of light of 360 nm.
(§2) 2. Detailed steps: the substrate of HDAC is diluted to […] (the reaction concentration is […]) with a reaction buffer. HDAC enzyme is diluted to a proper concentration. The compounds to be detected in different concentrations are added. The mixture reacts for 30 min at 37. Then the developer with the same volume and twice concentration of the substrate is added into the mixture. The mixture is incubated for 15 min at room temperature. Finally, the reading is measured with a micro plate scanner. The excitation light is 360 nm, the emitting light is 460 nm, and the data is processed with Prime 4 software.

[2] = target: T1, HDAC7 (Homo sapiens, UniProt Q8WUI4); assay: as above
T1 sequence (Q8WUI4 1-952): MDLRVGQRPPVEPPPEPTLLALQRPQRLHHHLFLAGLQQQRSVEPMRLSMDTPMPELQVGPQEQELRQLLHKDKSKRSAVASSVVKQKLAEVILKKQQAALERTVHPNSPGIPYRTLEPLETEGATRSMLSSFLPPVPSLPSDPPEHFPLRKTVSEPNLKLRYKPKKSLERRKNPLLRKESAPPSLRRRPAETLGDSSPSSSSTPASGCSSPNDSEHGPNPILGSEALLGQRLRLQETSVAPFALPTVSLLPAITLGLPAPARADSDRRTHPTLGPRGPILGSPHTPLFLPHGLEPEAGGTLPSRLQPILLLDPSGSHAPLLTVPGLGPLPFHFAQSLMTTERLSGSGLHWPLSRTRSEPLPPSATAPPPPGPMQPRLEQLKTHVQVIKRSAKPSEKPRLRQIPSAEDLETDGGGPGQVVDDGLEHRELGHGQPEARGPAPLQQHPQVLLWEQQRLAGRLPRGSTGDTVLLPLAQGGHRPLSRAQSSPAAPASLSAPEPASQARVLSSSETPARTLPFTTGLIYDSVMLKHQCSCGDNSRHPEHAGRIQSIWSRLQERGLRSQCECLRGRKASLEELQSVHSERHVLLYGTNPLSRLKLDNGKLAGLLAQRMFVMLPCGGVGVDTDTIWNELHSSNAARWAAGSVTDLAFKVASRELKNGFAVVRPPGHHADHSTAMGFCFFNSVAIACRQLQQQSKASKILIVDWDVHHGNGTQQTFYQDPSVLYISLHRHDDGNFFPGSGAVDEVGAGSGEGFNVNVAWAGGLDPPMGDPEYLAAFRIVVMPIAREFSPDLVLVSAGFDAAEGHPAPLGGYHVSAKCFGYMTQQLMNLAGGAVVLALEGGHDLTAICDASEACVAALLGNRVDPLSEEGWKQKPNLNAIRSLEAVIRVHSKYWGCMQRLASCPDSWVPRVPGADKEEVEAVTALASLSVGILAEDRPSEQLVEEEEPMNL
Experimental: as §1, §2

[3] = test system: A549 (human lung cancer cells); assay: MTT cancer cell growth inhibition; format: cell-based; settings: 72 h
From the text: (§3) 1. Experimental principles: the inhibition of cancer cell growth with compounds is detected by an MTT method. The principle of the MTT method is as follows: yellow thiazolyl blue may penetrate through cell membranes and enter into cells, succinate dehydrogenase in living cell mitochondria may reduce exogenous MTT into water-insoluble ianthinus acicular Formazan crystals which deposit in the cells, the crystals can be dissolved with dimethyl sulfoxide (DMSO), the optical density of the crystals is detected with an enzyme-linked immunometric meter at the wavelength of 490 nm/570 nm, and the number of cells can be indirectly reflected.
(§4) 2. Experimental materials: the used cancer cell lines are Hela (human cervical cancer cells), MCF-7 (human breast cancer cells), BGC-823 (human gastric cancer cells), A549 (human lung cancer cells), HT1080 (human fibrosarcoma cells), A431 (human epidermal squamous cell carcinoma cells), HUVEC (human umbilical vein endothelial cells), DU145 (human prostate cancer cells), K562 (human leukemia cells), U937 (human leukemia cells), Pac-1 (human pancreatic cancer cells), and MOLT-4 (human acute lymphoblastic leukemia cells), which are cultured with a DMEM+10% FBS culture medium or a 1640+10% FBS culture medium, respectively.
(§5) Experimental groups: 190 μl cell suspension+10 μl pharmaceuticals in different concentrations (the final concentration is 10^−5-10^−10M)
(§6) Negative control group: 190 μl cell suspension+10 μl 2% DMSO (the final concentration of DMSO is 0.1%)
(§7) a) Cells are inoculated on a 96-pore plate, with 1500 cells and 190 μl for each hole, and cultured overnight in a 5% CO2 incubator at 37.
(§8) b) 10 μl of different pharmaceuticals is added into each hole the next day, with the final concentration of the pharmaceuticals of 10^−5-10^−10M and three parallel holes, and incubated for 72 h in a 5% CO2 incubator at 37.
(§9) c) 20 μl of 5 mg/mL MTT is added into each hole, and incubated for 4 h in a 5% CO2 incubator at 37.
(§10) d) Supernatant is removed. 100 μl of DMSO is added into each hole and vibrated.
(§11) e) The reading is 570 nm. The cell survival rate is calculated.

[4] = test system: BGC-823 (human gastric cancer cells); assay: MTT cancer cell growth inhibition; format: cell-based; settings: 72 h, read-out: GI50 BGC823
From the text: as §3, §4, §5, §6, §7, §8, §9, §10, §11

[5] = test system: DU145 (human prostate cancer cells); assay: MTT cancer cell growth inhibition; format: cell-based; settings: DU-145, 72 h
From the text: as §3, §4, §5, §6, §7, §8, §9, §10, §11

[6] = test system: HT1080 (human fibrosarcoma cells); assay: MTT cancer cell growth inhibition; format: cell-based; settings: HT-1080, 72 h
From the text: as §3, §4, §5, §6, §7, §8, §9, §10, §11

[7] = test system: Hela (human cervical cancer cells); assay: MTT cancer cell growth inhibition; format: cell-based; settings: 72 h
From the text: as §3, §4, §5, §6, §7, §8, §9, §10, §11

[8] = test system: MCF-7 (human breast cancer cells); assay: MTT cancer cell growth inhibition; format: cell-based; settings: MCF7, 72 h
From the text: as §3, §4, §5, §6, §7, §8, §9, §10, §11

[9] = test system: MOLT-4 (human acute lymphoblastic leukemia cells); assay: MTT cancer cell growth inhibition; format: cell-based; settings: 72 h
From the text: as §3, §4, §5, §6, §7, §8, §9, §10, §11

[10] = test system: PANC-1; assay: MTT cancer cell growth inhibition; format: cell-based; settings: Homo sapiens, 72 h
From the text: as §3, §4, §5, §6, §7, §8, §9, §10, §11

[11] = test system: U937 (human leukemia cells); assay: MTT cancer cell growth inhibition; format: cell-based; settings: U-937, 72 h
From the text: as §3, §4, §5, §6, §7, §8, §9, §10, §11

[12] = test system: Incap; assay: MTT cancer cell growth inhibition; format: cell-based; settings: 72 h

HDAC1, sequence (Q13547 whole entry, species assumed): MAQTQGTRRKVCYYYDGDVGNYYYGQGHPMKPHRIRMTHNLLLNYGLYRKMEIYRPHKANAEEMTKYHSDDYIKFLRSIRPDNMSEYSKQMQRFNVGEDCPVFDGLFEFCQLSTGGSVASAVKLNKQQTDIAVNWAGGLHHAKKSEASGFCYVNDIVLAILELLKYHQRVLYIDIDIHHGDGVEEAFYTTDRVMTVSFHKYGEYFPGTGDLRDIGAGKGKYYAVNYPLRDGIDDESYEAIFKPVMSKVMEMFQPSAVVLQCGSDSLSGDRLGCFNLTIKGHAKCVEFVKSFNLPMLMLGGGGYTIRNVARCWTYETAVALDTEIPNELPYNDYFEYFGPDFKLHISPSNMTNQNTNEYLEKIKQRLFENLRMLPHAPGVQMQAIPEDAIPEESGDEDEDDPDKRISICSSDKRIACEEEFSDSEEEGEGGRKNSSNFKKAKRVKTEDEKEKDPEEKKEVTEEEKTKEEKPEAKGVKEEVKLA

Row | SMILES | IC50 ([1]; read-out: IC50 HDAC1) [nM] | IC50 HDAC7 [2] | GI50 [3] [nM] | GI50 [4] [nM] | GI50 [5] [nM] | GI50 [6] [nM] | GI50 [7] [nM] | GI50 [8] [nM] | GI50 [9] [nM] | GI50 [10] [nM] | GI50 [11] [nM] | GI50 [12] [nM] | IC50 [1] [nM]
1 | C/C=C1\NC(=O)c2csc(n2)CNC(=O)C[C@@H](/C=C/CCS)OC(=O)[C@H](C(C)C)NC1=O [Compound 6-1] | < 100 | no activity | 100 | 360 | 34 | 50 | 600 | 59 | 650 | 230 | 5 | 42 | 
2 | C/C=C1\NC(=O)c2csc(n2)[C@H](C(C)C)NC(=O)C[C@@H](/C=C/CCSC(=O)CCCCCCC)OC(=O)[C@H](C(C)C)NC1=O [Compound 4-1] |  | no activity | 540 | 230 | 1650 | 850 | 260 | 130 | 4020 | 1340 | 1560 | 1030 | < 10000
3 | C/C=C1\NC(=O)C2C=NC(=N2)CNC(=O)C[C@@H](/C=C/CCSC(=O)CCCCCCC)OC(=O)[C@H](C(C)C)NC1=O (stereo partly drawn) [Compound 2-4] | < 10000 | no activity | 4500 | 2600 | 6400 | 1600 | 23000 | 52600 | 900 | 4200 | 18600 | 85200 | 
4 | C/C=C1\NC(=O)C2N=C(CNC(=O)C[C@@H](/C=C/CCSC(=O)CCCCCCC)OC(=O)[C@H](C(C)C)NC1=O)O[C@@H]2C (stereo partly drawn) [Compound 2-2] | < 10000 | no activity | 2000 | 1600 | 56500 | 4500 | 600 | 2300 | 26200 | 600 | 10200 | 23600 | 
5 | C/C=C1\NC(=O)c2csc(n2)CNC(=O)C[C@@H](/C=C/CCSC(=O)Cc2ccccc2)OC(=O)[C@H](C(C)C)NC1=O [Compound 6-4] | < 10000 | no activity | 4600 | 2550 | 420 | 1330 | 500 | 690 | 2650 | 1250 | 6350 | 630 | 
6 | C/C=C1\NC(=O)c2csc(n2)CNC(=O)C[C@@H](/C=C/CCSC(=O)CCCCCCCCCCCC)OC(=O)[C@H](C(C)C)NC1=O [Compound 6-3] | < 10000 | no activity | 41000 | 5000 | 13600 | 25000 | 45000 | 56600 | 3640 | 890 | 10100 | 12000 | 
7 | C=C1NC(=O)c2csc(n2)CNC(=O)C[C@@H](/C=C/CCSC(=O)CCCCCCC)OC(=O)[C@H](C(C)C)NC1=O [Compound 3-1] | < 10000 | no activity | 350 | 1200 | 2030 | 1060 | 10 | 2100 | 150 | 10600 | 21500 | 5400 | 

More lines, main results first:

Row | IC50 ([1]; read-out: IC50 HDAC1) [nM] | IC50 HDAC7 [2] | GI50 [3] [nM] | GI50 [4] [nM] | GI50 [5] [nM] | GI50 [6] [nM] | GI50 [7] [nM] | GI50 [8] [nM] | GI50 [9] [nM] | GI50 [10] [nM] | GI50 [11] [nM] | GI50 [12] [nM] | SMILES | IC50 [1] [nM]
8 | < 10000 | no activity | 365 | 26500 | 695 | 1650 | 540 | 4120 | 268 | 1640 | 2660 | 450 | C/C=C1\NC(=O)c2csc(n2)CNC(=O)C[C@@H](/C=C/CCSC(=O)CCO)OC(=O)[C@H](C(C)C)NC1=O [Compound 6-5] | 
9 | < 100 | no activity | 1200 | 60 | 100 | 1000 | 900 | 800 | 100 | 6000 | 100 | 300 | C/C=C1\NC(=O)c2csc(n2)CNC(=O)C[C@@H](/C=C/CCSC(=O)CCCCCCC)OC(=O)[C@H](CSCC)NC1=O [Compound 1-12] | 
10 | < 10000 | no activity | 21300 | 2100 | 650 | 19600 | 3050 | 3650 | 10 | 650 | 340 | 73500 | C/C=C1\NC(=O)c2csc(n2)CNC(=O)C[C@@H](/C=C/CCSC(=O)CCCCCCC)OC(=O)[C@H](C)N(C)C1=O [Compound 5-1] | 
11 | < 100 | no activity | 100 | 200 | 10 | 100 | 100 | 1 | 20 | 1300 | 20 | 80 | C/C=C1\NC(=O)c2csc(n2)CNC(=O)C[C@@H](/C=C/CCSC(=O)CCCCCCC)OC(=O)[C@H](CCSC)NC1=O [Compound 1-10] | 
12 | < 10000 | no activity | 1090 | 5940 | 50 | 60 | 450 | 1200 | 2120 | 4130 | 140 | 450 | CCCCCCCC(=O)SCC/C=C/[C@@H]1CC(=O)NCc2nc(cs2)C(=O)NCC(=O)N[C@@H](C(C)C)C(=O)O1 [Compound 3-3] | 
